Tests used:
LNCaP cells = assay: GSH levels and glutathione- and oxidative stress-related enzyme activities in LNCaP cells growing in vivo; parameters: species or system human; conditions: in vivo Pter, day 49
Description: (§1) To measure enzyme activity, isolated tumor cells were homogenized in 0.1 M phosphate buffer (pH 7.2) at 4° C. GCL and GSS activities were measured as described previously (Obrador, E. et al. Hepatology 35, 74-81 (2002)). GPX (selenium dependent) activity was measured as described by Flohé and Gunzler (Flohe, L. & Gunzler, W. A. Methods Enzymol 105, 114-121 (1984)) using H2O2 as a substrate. GSR activity was determined as described by Akerboom and Sies (Akerboom, T. P. et al, Bull Eur Physiopathol Respir 17 Suppl, 221-227 (1981)). GGT activity was measured as described previously (Obrador, E. et al. Hepatology 35, 74-81 (2002)). GST activity was measured using an assay kit from Sigma. TXNRD activity, defined by the concentration of sodium-lipoate (disulfide) reduced to dehydrolipoate (dithiol) per milligram protein, was measured as previously described (Javvadi, P. et al. Cancer Res 70, 1941-1950 (2010)). SOD activity was measured as described by Flohé and Otting (Flohe, L. & Otting, F. Methods Enzymol 105, 93-104 (1984).) using 2 mM cyanide in the assay medium to distinguish mangano-type enzyme (SOD2) from the cuprozinc type (SOD1). CAT activity was analyzed as described by Aebi (Aebi, H. Methods Enzymol 105, 121-126 (1984)). NOX activity was measured by chemiluminescence following the methodology of Wind et al. (Wind, S. et al. Comparative pharmacology of chemically distinct NADPH oxidase inhibitors. Br J Pharmacol 161, 885-898 (2010)). Protein concentration was determined with the Pierce BCA protein assay (Fisher Scientific, Waltham, Mass.).
(§2) GSH, GSSG, NADP^+ and NADPH Determination.
(§3) GSH and GSSG were determined, following procedures previously described (Obrador, E. et al. PLoS One 9, e96466 (2014)), by LC/MS using the same equipment described above for pterostilbene determination. Cell processing was performed according to published methodology, where rapid N-ethylmaleimide derivatization was used to prevent GSH auto-oxidation (Asensi, M. et al. Anal Biochem 217, 323-328 (1994)). NADP^+ and NADPH were quantitated using an assay kit from Sigma (St. Louis, Mo.).
(§4) Isolation of Tumor Cells from Mouse Xenografts Using Enzymatic Digestion and a double Ficoll gradient.
(§5) To maximize the amount of isolated cells, avoiding the use of RFP-transfected cells and subsequent laser microdissection, an alternative methodology was set up. To maximize cell yield and viability the following combination of enzymes was used: collagenase III (200 U/ml; Sigma-Aldrich), DNase I (200 U/ml; Sigma-Aldrich) and trypsin (5 mg/ml; Invitrogen), and a non-enzymatic dissociation buffer (NEDB, Invitrogen). Briefly, mice were killed, and tumors were removed (avoiding skin, muscle and fat) into cold culture media and processed immediately. The tumors were minced into 1-3 mm fragments, which were then incubated with the dissociation solution (see above) for 30 min at 37° C. The tumor fragments were mixed up and down every 10 min using a […] micropipette with a tip cut to a diameter adapted to tissue fragment size. After each incubation period, the fragments were filtered through a […] nylon mesh cell strainer (BD Biosciences, San Diego, Calif., USA). The released cells were centrifuged at 1200 r.p.m. for 2 min and stored in cold CO2-independent medium with 30% FCS at […]. Fresh dissociation solution was added to the remaining tissue fragments for 30 min. Dissociation was stopped when no additional cells were released. The fragments were pushed through a sieve and all cells from all incubation periods were pooled and counted.
(§6) The dissociated cells were layered onto a double Ficoll gradient (Histopaque; Sigma-Aldrich; densities 1.077 and 1.119) and spun at 700 g for 30 min at room temperature. Cells removed from both interfaces were pooled and washed two times in CO2-independent medium and stored at 4° C. Debris and red blood cell elimination was improved with the dual-density gradient. […]

human melanoma cells = assay: Effect of pterostilbene on melanoma cell growth and viability in vitro; type: cell-based
[1] = test system: AtT-20 pituitary corticotroph tumor cells; assay: ACTH production and POMC expression in AtT-20 cells; type: cell-based, mouse; conditions: pterostilbene 15 μM
Description: FIG. 3. Pterostilbene bioavailability in brain and the pituitary gland, and its effect on ACTH synthesis and POMC expression in AtT-20 cells. […] (B) Effect of pterostilbene on ACTH production by AtT-20 cells in a 24 h-period (measured between 24-48 h or between 48-72 h). […] After the 30 min period, culture flasks were washed out (three times with PBS) and the medium was renewed (controls received identical treatment).
Plasma levels of ACTH (Calbiotech, Inc., Spring Valley, Calif.), corticosterone (Kamiyama Biomedical Co., Seattle, Wash.), and NORA (IBL, Hamburg, Germany) were quantified by ELISA according to the instructions of the suppliers.
RT-PCR and detection of mRNA was performed as described above. For Western blotting (see also above) POMC mouse monoclonal antibody (clone 2B2) from Origen (Rockville, Md.) were used.

A549 human lung cancer = conditions: 20 μM Pter, 24 h, in vitro; cited from earlier work
HepG2 cells = assay: GSH levels and glutathione- and oxidative stress-related enzyme activities in HepG2 cells growing in vivo; parameters: species or system human; conditions: HepG2, in vivo Pter, day 35
Description: as §1, §2, §3, §4, §5, §6

For `COc1cc(/C=C/c2ccc(O)cc2)cc(OC)c1` [Pter, trans-3,5-dimethoxy-4′-hydroxystilbene], the CAT (LNCaP cells) was 1.9 ± 0.5 mU/10^6 cells, the GCL (LNCaP cells) was 45 ± 14 mU/10^6 cells and the GSH (LNCaP cells) was 3.7 ± 1.5 nmol/10^6 cells. For the same molecule, the GSS (LNCaP cells) was 4.0 ± 1.2 mU/10^6 cells, the GSSG (LNCaP cells) was 0.12 ± 0.05 nmol/10^6 cells and the SOD1 (LNCaP cells) was 0.5 ± 0.1 U/10^6 cells. For the same molecule, the SOD2 (LNCaP cells) was 0.01 ± 0.005 U/10^6 cells, the “pterostilbene levels in culture medium during incubation” value (human melanoma cells; human melanoma cells, 60 min incubation) was “remained unchanged” and the “melanoma cell proliferation and viability in vitro” value (human melanoma cells; pterostilbene 15 μM, 60 min each 24 h) was “nor tumor cell proliferation neither viability were significantly affected”. For the same molecule, the “ACTH production by AtT-20 cells” value ([1]; 30 min every 24 h, CRH 100 nM) was “decreases”, the “POMC expression and levels in AtT-20 cells” value ([1]; 72 h of culture) was “decreased” and the “decrease in tumor cell viability” value (A549 human lung cancer) was roughly 40%. The CAT (HepG2 cells) was 1.1 ± 0.3 mU/10^6 cells, the GCL (HepG2 cells) was 50 ± 15 mU/10^6 cells and the GSH (HepG2 cells) was 8.5 ± 2.6 nmol/10^6 cells. The GSS (HepG2 cells) was 4.8 ± 0.9 mU/10^6 cells, the GSSG (HepG2 cells) was 0.3 ± 0.1 nmol/10^6 cells and the SOD1 (HepG2 cells) was 0.1 ± 0.02 U/10^6 cells. For the same molecule, the SOD2 (HepG2 cells) was 0.02 ± 0.01 U/10^6 cells.

From patent US11179348B2, “Combination comprising pterostilbene for the treatment of cancer” (FUNDACIÓN UNIVERSIDAD CATÓLICA DE VALENCIA SAN VICENTE …, priority 2015, dated 2021)
